Measured values from ChEMBL document CHEMBL1140598, “A review of anti-infective and anti-inflammatory chalcones” (Eur J Med Chem, 2007).
Converted amounts (≈) assume the structure as drawn.

Key:
RAW [1] = assay: Inhibition of nitric oxide production in LPS-stimulated mouse RAW 264.7 cells at 10 uM; format: functional
RAW [2] = assay: Inhibition of prostaglandin E2 production in LPS-stimulated mouse RAW 264.7 cells at 10 uM; format: functional
Neutrophil [3] = assay: Inhibition of fMLP/CB-stimulated release of beta-glucuronidase in rat neutrophils; format: functional, cell-based
Neutrophil [4] = assay: Inhibition of fMLP/CB-stimulated release of lysozyme in rat neutrophils; format: functional, cell-based
Plasmodium falciparum [5] = assay: Inhibition of ring to schizont stage maturation in Plasmodium falciparum NF54 at 10 ug/mL; format: functional
Plasmodium falciparum [6] = assay: Inhibition of ring to schizont stage maturation in Plasmodium falciparum NF54 at 50 ug/mL; format: functional
[7] = Inhibition of LPS-stimulated nitric oxide formation in mouse microglial cells; format: functional, cell-based
Plasmodium falciparum [8] = assay: Inhibition of ring to schizont stage maturation in Plasmodium falciparum NF54 at 2 ug/mL; format: functional
Rhizoctonia solani = assay: Antifungal activity against Rhizoctonia solani; format: functional
Fusarium oxysporum = assay: Antifungal activity against Fusarium oxysporum; format: functional
Colletotrichum truncatum = assay: Antifungal activity against Colletotrichum capsici; format: functional
Plasmodium falciparum [9] = assay: Antiplasmodial activity against chloroquine-sensitive Plasmodium falciparum poW by [3H]hypoxanthine incorporation; format: functional, organism-based
Plasmodium falciparum [10] = assay: Antiplasmodial activity against multiresistant Plasmodium falciparum Dd2 by [3H]hypoxanthine incorporation; format: functional, organism-based
[11] = tested on: Human immunodeficiency virus 1; assay: Inhibition of HIV1 p24 antigen production in human C8166 lymphocytes; format: functional, organism-based; details: Human immunodeficiency virus 1, C8166
[12] = tested on: Human immunodeficiency virus 1; assay: Inhibition of HIV1 reverse transcriptase production in human C8166 lymphocytes; format: functional, organism-based; details: Human immunodeficiency virus 1, C8166
[13] = tested on: Human immunodeficiency virus 1; assay: Antiviral activity against HIV1 3B assessed as inhibition of p24 antigen production in human PBMCs; format: functional, organism-based; details: Human immunodeficiency virus 1, 3B
Leishmania amazonensis [14] = assay: Antileishmanial activity against Leishmania amazonensis intracellular amastigotes; format: functional; details: read-out: ED50 (the source's name)
Leishmania amazonensis [15] = assay: Antileishmanial activity against Leishmania amazonensis promastigotes; format: functional; details: read-out: ED50 (the source's name)
[16] = tested on: Cladosporium cladosporioides; assay: Fungicidal activity against Cladosporium cladosporioides; format: functional
[17] = tested on: Human immunodeficiency virus; assay: Antiviral activity against HIV; format: functional, organism-based; details: Human immunodeficiency virus 1
Staphylococcus aureus [18] = assay: Antibacterial activity against Staphylococcus aureus; format: functional, organism-based
[19] = tested on: Staphylococcus epidermidis; assay: Antibacterial activity against Staphylococcus epidermidis; format: functional
[20] = tested on: Staphylococcus haemolyticus; assay: Antibacterial activity against Staphylococcus haemolyticus; format: functional
Neutrophil [21] = assay: Superoxide radical scavenging activity in stimulated human neutrophils; format: functional, cell-based
[22] = Superoxide radical scavenging activity by hypoxanthine / xanthine oxidase system; format: functional
Plasmodium falciparum [23] = assay: Antiplasmodial activity against chloroquine-sensitive Plasmodium falciparum 3D7 by [3H]hypoxanthine incorporation; format: functional, organism-based
Plasmodium falciparum [24] = assay: Antiplasmodial activity against chloroquine-sensitive Plasmodium falciparum Dd2 by [3H]hypoxanthine incorporation; format: functional, organism-based
[25] = Inhibition of Leishmania donovani solubilized fumarate reductase
[26] = target: Protease (Human immunodeficiency virus 1) (UniProt Q9YQ12); assay: Inhibition of HIV1 protease at 50 ug/mL
Protease = Protease (Human immunodeficiency virus 1, UniProt Q9YQ12); assay: Inhibition of HIV1 protease
Microsporum canis = assay: Antifungal activity against Microsporum canis; format: functional
Microsporum = assay: Antifungal activity against Microsporum gypseum; format: functional
Trichophyton benhamiae = assay: Antifungal activity against Trichophyton mentagrophytes; format: functional, Arthroderma benhamiae
Trichophyton rubrum = assay: Antifungal activity against Trichophyton rubrum; format: functional
Epidermophyton floccosum = assay: Antifungal activity against Epidermophyton floccosum; format: functional
[27] = target: Superoxide dismutase [Fe] (Plasmodium falciparum) (UniProt Q9TW89); assay: Inhibition of Plasmodium falciparum recombinant superoxide dismutase at 50 uM
Plasmodium falciparum [28] = assay: Antimalarial activity against chloroquine-sensitive Plasmodium falciparum HB3; format: functional, organism-based
Plasmodium falciparum [29] = assay: Antimalarial activity against chloroquine-resistant Plasmodium falciparum Dd2; format: functional, organism-based
Mycobacterium xenopi = assay: Antibacterial activity against Mycobacterium xenopi; format: functional
Heyndrickxia coagulans = assay: Antibacterial activity against Bacillus coagulans; format: functional
Bacillus subtilis = assay: Antibacterial activity against Bacillus subtilis; format: functional
[30] = tested on: Geobacillus stearothermophilus; assay: Antibacterial activity against Bacillus stearothermophilus; format: functional
Clostridium sporogenes = assay: Antibacterial activity against Clostridium sporogenes; format: functional
Bacillus cereus = assay: Antibacterial activity against Bacillus cereus; format: functional
[31] = tested on: Lactobacillus acidophilus; assay: Antibacterial activity against Lactobacillus acidophilus; format: functional
[32] = tested on: Lactiplantibacillus plantarum; assay: Antibacterial activity against Lactobacillus plantarum; format: functional
Enterococcus faecalis = assay: Antibacterial activity against Enterococcus faecalis; format: functional
Lactococcus lactis = assay: Antibacterial activity against Streptococcus lactis; format: functional
Streptococcus mutans = assay: Antibacterial activity against […]; format: functional
Helicobacter pylori = assay: Growth inhibition of Helicobacter […]; format: functional
Staphylococcus aureus [33] = assay: Antibacterial activity against methicillin-resistant Staphylococcus aureus OM481; format: functional
Staphylococcus aureus [34] = assay: Antibacterial activity against methicillin-resistant Staphylococcus aureus OM505; format: functional
Staphylococcus aureus [35] = assay: Antibacterial activity against methicillin-resistant Staphylococcus aureus K3; format: functional
Staphylococcus aureus [36] = assay: Antibacterial activity against methicillin-resistant Staphylococcus aureus ST28; format: functional
Staphylococcus aureus [37] = assay: Antibacterial activity against methicillin-sensitive Staphylococcus aureus FDA209P; format: functional
Staphylococcus aureus [38] = assay: Antibacterial activity against methicillin-sensitive Staphylococcus aureus Smith; format: functional
Enterococcus faecium = assay: Antibacterial activity against Enterococcus faecium; format: functional
[39] = tested on: Mycobacterium tuberculosis; assay: Antibacterial activity against Mycobacterium tuberculosis; format: functional
Mycobacterium kansasii = assay: Antibacterial activity against Mycobacterium kansasii; format: functional
Mycobacterium marinum = assay: Antibacterial activity against Mycobacterium marinum; format: functional
[40] = Inhibition of Leishmania major succinate dehydrogenase
[41] = Inhibition of Leishmania major NADH dehydrogenase
[42] = Inhibition of Leishmania major succinate-cytochrome c reductase
[43] = Inhibition of Leishmania major NADH-cytochrome c reductase
[44] = Inhibition of Leishmania major succinate dehydrogenase in human PBMCs crude mitochondria after 60 mins
[45] = Inhibition of Leishmania major NADH-dehydrogenase in human PBMCs crude mitochondria after 60 mins
[46] = Inhibition of Leishmania donovani fumarate reductase in after 60 mins
Leishmania major = assay: Growth inhibition of Leishmania major promastigotes assessed as [3H]thymidine incorporation; format: functional, organism-based
Leishmania donovani = assay: Inhibition of Leishmania donovani amastigotes in human monocyte-derived macrophages; format: functional, organism-based
Plasmodium falciparum [47] = assay: Antiplasmodial activity against chloroquine-sensitive Plasmodium falciparum D6; format: functional, organism-based
Plasmodium falciparum [48] = assay: Antiplasmodial activity against chloroquine-resistant Plasmodium falciparum W2; format: functional, organism-based

Sequence of Superoxide dismutase [Fe] (Plasmodium falciparum) (Q9TW89 whole entry): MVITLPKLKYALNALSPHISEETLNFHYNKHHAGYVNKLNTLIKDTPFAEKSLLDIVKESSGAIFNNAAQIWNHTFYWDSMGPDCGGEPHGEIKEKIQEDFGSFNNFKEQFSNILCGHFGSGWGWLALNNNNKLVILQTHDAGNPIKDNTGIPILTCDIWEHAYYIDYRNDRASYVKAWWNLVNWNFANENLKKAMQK
Sequence of Protease (Q9YQ12 whole entry): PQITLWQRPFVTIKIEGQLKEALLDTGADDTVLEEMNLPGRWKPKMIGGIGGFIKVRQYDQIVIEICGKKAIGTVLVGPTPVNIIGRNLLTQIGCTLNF
Sequence of Protease (Human immunodeficiency virus 1) (Q9YQ12 as listed by the source): as the sequence (Q9YQ12 whole entry) above

SMILES: COc1cc(OC)c(/C=C/C(=O)c2ccccc2C(F)(F)F)c(OC)c1
- inhibition at 10 µM (RAW [1]): 76.3%
- inhibition at 10 µM (RAW [2]): 76.3%

SMILES: O=C(/C=C/c1ccccc1O)c1ccccc1O
- IC50 (Neutrophil [3]): 1.6 µM
- IC50 (Neutrophil [4]): 1.4 µM

SMILES: COc1cc(/C=C/C(=O)c2ccc(O)c(CC=C(C)C)c2O)ccc1O [CROTAORIXIN]
- inhibition at 10 µg/mL (Plasmodium falciparum [5]): 100%
- inhibition at 50 µg/mL (Plasmodium falciparum [6]): 100%

SMILES: CCCCOc1ccc(OCCCC)c(C(=O)/C=C/c2ccc(Cl)cc2)c1
- IC50 [7]: 0.7 µM

SMILES: CC(C)=CCc1cc(C(=O)/C=C/c2ccc(O)cc2)c(O)c(CC=C(C)C)c1O [MEDICAGENIN]
- inhibition at 2 µg/mL (Plasmodium falciparum [8]): 100%

SMILES: O=C(/C(Br)=C(\Br)c1cccc([N+](=O)[O-])c1)c1cccc([N+](=O)[O-])c1
- MIC (Rhizoctonia solani): 6.25 µg/mL (≈ 13.7 µM)
- MIC (Fusarium oxysporum): 6.25 µg/mL (≈ 13.7 µM)
- MIC (Colletotrichum truncatum): 6.25 µg/mL (≈ 13.7 µM)

SMILES: COc1cc(O)c(CC=C(C)C)c(O)c1C(=O)/C=C/c1ccc(O)cc1 [XANTHOHUMOL]
- IC50 (Plasmodium falciparum [9]): 8.2 µM
- IC50 (Plasmodium falciparum [10]): 24 µM
- EC50 [11]: 1.28 µg/mL (≈ 3.61 µM)
- EC50 [12]: 0.5 µg/mL (≈ 1.41 µM)
- EC50 [13]: 20.7 µg/mL (≈ 58.5 µM)

SMILES: COc1cc(O)c(C(=O)/C=C/c2ccccc2)c(O)c1
- EC50 (Leishmania amazonensis [14]): 24 µg/mL (≈ 88.8 µM)
- EC50 (Leishmania amazonensis [15]): 0.5 µg/mL (≈ 1.85 µM)

SMILES: CC1(C)CCc2c(O)ccc(C(=O)/C=C/c3ccc(O)cc3)c2O1
- MIC [16]: 2 µg

SMILES: COc1c(C)c(O)c(C(=O)/C=C(\O)c2ccccc2)c(O)c1C=O
- EC50 [17]: 0.022 µg/mL (≈ 0.067 µM)

SMILES: O=C(/C=C/c1ccc(O)cc1)c1ccc(O)cc1O [ISOLIQUIRITIGENIN]
- MIC (Staphylococcus aureus [18]): 250 µg/mL (≈ 976 µM)
- MIC [19]: 250 µg/mL (≈ 976 µM)
- MIC [20]: 250 µg/mL (≈ 976 µM)

SMILES: COc1ccc(C(=O)/C=C/c2ccc(N(C)C)cc2)cc1OC
- IC50 (Neutrophil [21]): 0.1 µM
- IC50 [22]: 0.3 µM

SMILES: CCCCOc1ccc(C(=O)/C=C/c2ccc(OC)cc2OC)cc1
- IC50 (Plasmodium falciparum [23]): 8.9 µM
- IC50 (Plasmodium falciparum [24]): 14.8 µM
- IC50 [25]: 118 µM

SMILES: COc1cc(O)cc(O)c1C(=O)/C=C/c1ccccc1 [CARDAMOMIN]
- inhibition [26]: 75.1%
- IC50 (Protease): 115 µM

SMILES: COc1cccc(/C=C/C(=O)c2ccc(Br)cc2)c1
- MIC (Microsporum canis): 25 µg/mL (≈ 78.8 µM)
- MIC (Microsporum): 1.5 µg/mL (≈ 4.73 µM)
- MIC (Trichophyton benhamiae): 3 µg/mL (≈ 9.46 µM)
- MIC (Trichophyton rubrum): 3 µg/mL (≈ 9.46 µM)
- MIC (Epidermophyton floccosum): 0.5 µg/mL (≈ 1.58 µM)

SMILES: CC(C)(C)c1ccc(C(=O)/C=C/c2ccc(Br)cc2)cc1
- inhibition [27]: 83%
- IC50 (Plasmodium falciparum [28]): 37 µM
- IC50 (Plasmodium falciparum [29]): 27 µM

SMILES: C=CC(C)(C)c1cc(/C=C/C(=O)c2ccc(O)cc2)c(OC)cc1O [LICOAGROCHACONE A]
- MIC (Mycobacterium xenopi): ≤ 20 µg/mL
- MIC (Heyndrickxia coagulans): 2 µg/mL (≈ 5.91 µM)
- MIC (Bacillus subtilis): 2 µg/mL (≈ 5.91 µM)
- MIC [30]: 2 µg/mL (≈ 5.91 µM)
- MIC (Clostridium sporogenes): 8 µg/mL (≈ 23.6 µM)
- MIC (Bacillus cereus): 3 µg/mL (≈ 8.87 µM)
- MIC (Staphylococcus aureus [18]): 3 µg/mL (≈ 8.87 µM)
- MIC [31]: 5 µg/mL (≈ 14.8 µM)
- MIC [32]: 5 µg/mL (≈ 14.8 µM)
- MIC (Enterococcus faecalis): 6 µg/mL (≈ 17.7 µM)
- MIC (Lactococcus lactis): 8 µg/mL (≈ 23.6 µM)
- MIC (Streptococcus mutans): 5 µg/mL (≈ 14.8 µM)
- MIC (Helicobacter pylori): 25 µg/mL (≈ 73.9 µM)
- MIC (Staphylococcus aureus [33]): 16 µg/mL (≈ 47.3 µM)
- MIC (Staphylococcus aureus [34]): 16 µg/mL (≈ 47.3 µM)
- MIC (Staphylococcus aureus [35]): 6.25 µg/mL (≈ 18.5 µM)
- MIC (Staphylococcus aureus [36]): 6.25 µg/mL (≈ 18.5 µM)
- MIC (Staphylococcus aureus [37]): 16 µg/mL (≈ 47.3 µM)
- MIC (Staphylococcus aureus [38]): 3.13 µg/mL (≈ 9.25 µM)
- MIC (Enterococcus faecium): 6 µg/mL (≈ 17.7 µM)
- MIC [39]: ≤ 20 µg/mL
- MIC (Mycobacterium kansasii): ≤ 20 µg/mL
- MIC (Mycobacterium marinum): ≤ 20 µg/mL
- IC50 [40]: 593 µM
- IC50 [41]: 460 µM
- IC50 [42]: 1520 µM
- IC50 [43]: 1980 µM
- IC50 [44]: 1400 µM
- IC50 [45]: 1400 µM
- IC50 [46]: 14 µM
- IC50 (Leishmania major): 4 µM
- IC50 (Leishmania donovani): 0.65 µM
- IC50 (Plasmodium falciparum [47]): 10.3 µM
- IC50 (Plasmodium falciparum [48]): 10.3 µM
